The values that follow come from patent US11479551B2, “MTA-cooperative PRMT5 inhibitors” (Mirati Therapeutics, Inc., priority 2019, dated 2022).

Test [1] has as its target PRMT5/MEP50 complex (Homo sapiens (Human), UniProt O14744). The test can be described thus: PRMT5:MEP50 HotSpot Assay (full-length histone H2A substrate, plus and minus MTA). It is filed as biochemical. The essentials: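 Radiometric filter-binding format using recombinant full-length histone H2A as substrate. After the reaction was stopped, mixtures went onto filter paper and tritiated H2A was quantified by scintillation counting.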

Test [2] has as its system HCT116 parental cells. Put plainly: Proliferation assay (CellTiter-Glo, 10 days of treatment), HCT116 parental. Type of test: cell-based. The procedure: Control samples were analyzed in parallel.
Briefly, on Day 0, 250 HCT116 parental or HCT116 homozygous MTAP knockout cell were seeded in 96 well plates in McCoy's 5A supplemented with 10% fetal bovine serum and pen/strep and the cells were incubated overnight at 37° C. plus 5% CO2.
The following day, cells were treated with DMSO vehicle control or a dose response of PRMT5 inhibitors and incubated at 37 C plus 5% CO2 for five days. On Day 6, the cells were trypsinized and split 1:10 into new 96-well plates with fresh medium containing the same concentration of PRMT5 inhibitor and incubated for an additional 5 days at 37° C. plus 5% CO^2.
On Day 11, the viability of the cells was measured using a CTG assay kit (CellTiter-Glo; Promega cat.no G7573) in accordance with the manufacturer's instructions. The IC50 values for each compound after 10 days of treatment were calculated using GraphPad PRISM software.

Test [3] concerns HCT116 homozygous MTAP knockout cells. Put plainly: Proliferation assay (CellTiter-Glo, 10 days of treatment), HCT116 MTAP knockout. It is filed as cell-based. Particulars: read-out: Proliferation HCT116MTAP_KO IC50. The essentials: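 Cells (250/well) seeded in McCoy's 5A with 10% FBS, then treated the next day with a PRMT5 inhibitor dose response at 37 °C, 5% CO2. On day 6 they were split 1:10 into fresh medium with the same compound concentration. CellTiter-Glo viability was read on day 11 and IC50 taken after 10 days of treatment.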

Test [4] deals with PRMT5-dependent Symmetric Di-methyl Arginine signal in HCT116 parental cells. Put plainly: SYM11 In-Cell Western, HCT116 parental. It is filed as cell-based. Particulars: 4 days of treatment, SYM11/DRAQ5 ratio. The essentials: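 HCT116 parental cells (2,000/well, McCoy's 5A with 10% FBS) dosed with PRMT5 inhibitors for four days at 37° C. Fixed in paraformaldehyde and methanol, then stained with SYM11 antibody and DRAQ5.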

Test [5] relates to PRMT5-dependent Symmetric Di-methyl Arginine signal in HCT116 homozygous MTAP knockout cells. Put plainly: SYM11 In-Cell Western, HCT116 MTAP knockout. It is filed as cell-based. Particulars: HCT116 homozygous MTAP knockout cells, 4 days of treatment, SYM11/DRAQ5 ratio, read-out: In-cell-Western (SYM11) HCT116 MTAP_KO IC50.
Setting [6] is: IC50 + 2 μM MTA, in the presence of 2 μM MTA.

Molecules are shown by their SMILES. Where two headings read alike, the source gives them in different places.

Chain of PRMT5/MEP50 complex (O14744 2-637): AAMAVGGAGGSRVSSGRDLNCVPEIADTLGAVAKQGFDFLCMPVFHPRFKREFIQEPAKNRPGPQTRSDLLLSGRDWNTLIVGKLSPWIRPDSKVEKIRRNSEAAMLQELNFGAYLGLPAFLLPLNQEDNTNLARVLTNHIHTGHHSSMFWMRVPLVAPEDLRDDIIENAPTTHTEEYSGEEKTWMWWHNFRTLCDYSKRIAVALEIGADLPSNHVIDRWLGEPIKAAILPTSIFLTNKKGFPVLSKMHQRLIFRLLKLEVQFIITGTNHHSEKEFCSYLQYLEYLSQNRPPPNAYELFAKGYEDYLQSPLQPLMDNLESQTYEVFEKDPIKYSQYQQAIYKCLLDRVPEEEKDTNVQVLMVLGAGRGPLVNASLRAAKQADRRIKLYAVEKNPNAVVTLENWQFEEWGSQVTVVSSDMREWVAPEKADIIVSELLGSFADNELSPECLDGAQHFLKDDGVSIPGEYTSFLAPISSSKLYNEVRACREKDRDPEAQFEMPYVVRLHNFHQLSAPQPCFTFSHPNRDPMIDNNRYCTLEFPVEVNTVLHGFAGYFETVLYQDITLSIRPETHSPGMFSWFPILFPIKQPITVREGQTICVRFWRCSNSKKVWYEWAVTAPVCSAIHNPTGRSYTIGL
Chain of PRMT5/MEP50 complex (Q9BQA1 2-342 partner): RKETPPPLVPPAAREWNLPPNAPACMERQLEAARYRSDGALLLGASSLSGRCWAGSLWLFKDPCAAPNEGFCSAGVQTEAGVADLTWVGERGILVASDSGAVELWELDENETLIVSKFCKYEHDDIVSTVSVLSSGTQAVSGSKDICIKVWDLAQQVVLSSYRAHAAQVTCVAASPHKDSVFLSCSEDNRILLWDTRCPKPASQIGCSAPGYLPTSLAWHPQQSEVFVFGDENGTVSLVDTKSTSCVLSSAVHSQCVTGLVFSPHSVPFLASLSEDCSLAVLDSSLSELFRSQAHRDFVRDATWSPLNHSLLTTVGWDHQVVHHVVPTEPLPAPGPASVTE

With `CCCc1cccc(-c2c(-c3ccc4c(=O)[nH]nc(CN)c4c3)cnn2C)c1C#N` [Example 4-189, 2-(4-(4-(aminomethyl)-1-oxo-1,2-dihydrophthalazin-6-yl)-1-methyl-1H-pyrazol-5-yl)-6-propylbenzonitrile], the IC50 in test [1] (setting [6]) is 656 nM; in test [2] (Homo sapiens, HCT-116, 240 h), above 10 µM; in test [3] (Homo sapiens, HCT-116, 240 h), 234 nM; in test [4] (Homo sapiens, HCT-116, 96 h), 1.83 µM; in test [5] (Homo sapiens, HCT-116, 96 h), 31 nM.
The like results for `Cn1ncc(-c2ccc3c(=O)[nH]nc(CN)c3c2)c1-c1cccc(OC2CCC2)c1` [Example 4-137, 4-(aminomethyl)-6-(5-(3-cyclobutoxyphenyl)-1-methyl-1H-pyrazol-4-yl)phthalazin-1(2H)-one] were, in that order, 810 nM, above 10 µM, 3240 nM, 5.18 µM and 88 nM.
Consider `CCOc1cccc(-c2c(-c3ccc4c(=O)[nH]nc(CN)c4c3)cnn2C)c1C#N` [Example 4-146, 2-(4-(4-(aminomethyl)-1-oxo-1,2-dihydrophthalazin-6-yl)-1-methyl-1H-pyrazol-5-yl)-6-ethoxybenzonitrile], for which the IC50 was 569 nM in test [1] (setting [6]); above 10 µM in test [2] (Homo sapiens, HCT-116, 240 h); 261 nM in test [3] (Homo sapiens, HCT-116, 240 h); 6.69 µM in test [4] (Homo sapiens, HCT-116, 96 h); 40 nM in test [5] (Homo sapiens, HCT-116, 96 h).
The corresponding values for `Cn1ncc(-c2ccc3c(=O)[nH]nc(CN)c3c2)c1-c1ccc2ncccc2c1C#N` [Example 4-149, 6-(4-(4-(aminomethyl)-1-oxo-1,2-dihydrophthalazin-6-yl)-1-methyl-1H-pyrazol-5-yl)quinoline-5-carbonitrile] are 282 nM, above 10 µM, 359 nM, 6.35 µM and 135 nM.
The like results for `Cn1ncc(-c2ccc3c(=O)[nH]nc(CN)c3c2)c1-c1cccc(C2CC2)c1C#N` [Example 4-198, 2-(4-(4-(aminomethyl)-1-oxo-1,2-dihydrophthalazin-6-yl)-1-methyl-1H-pyrazol-5-yl)-6-cyclopropylbenzonitrile] were, in that order, 111 nM, 7.34 µM, 136 nM, 1.27 µM and 21 nM.
For `Cn1ncc(-c2ccc3c(=O)[nH]nc(CN)c3c2)c1-c1c(F)cc2ccccc2c1C#N` (single isomer, unassigned) [Example 16-2], the IC50 was 111 nM in test [1] (read-out: IC50 + 2 μM MTA, in the presence of 2 μM MTA); 5.92 µM in test [2]; 224 nM in test [3]; above 1 µM in test [4]; 73 nM in test [5].
Consider `Cn1ncc(-c2ccc3c(=O)[nH]nc(CN)c3c2)c1-c1ccccc1F` [Example 4-142, 4-(aminomethyl)-6-(5-(2-fluorophenyl)-1-methyl-1H-pyrazol-4-yl)phthalazin-1(2H)-one], for which the IC50 in test [1] (setting [6]) stood at 881 nM; in test [2] (Homo sapiens, HCT-116, 240 h), 5.74 µM; in test [3] (Homo sapiens, HCT-116, 240 h), 1780 nM; in test [4] (Homo sapiens, HCT-116, 96 h), 6.27 µM; in test [5] (Homo sapiens, HCT-116, 96 h) it was 49 nM.
Consider `Cn1ncc(-c2ccc3c(=O)[nH]nc(CN)c3c2)c1-c1sc2ccccc2c1C#N` [Example 4-242, 2-(4-(4-(aminomethyl)-1-oxo-1,2-dihydrophthalazin-6-yl)-1-methyl-1H-pyrazol-5-yl)benzo[b]thiophene-3-carbonitrile], for which the IC50 is 102 nM in test [1] (setting [6]); 4.99 µM in test [2] (Homo sapiens, HCT-116, 240 h); 44 nM in test [3] (Homo sapiens, HCT-116, 240 h); above 1 µM in test [4] (Homo sapiens, HCT-116, 96 h); 2 nM in test [5] (Homo sapiens, HCT-116, 96 h).
As to `Cn1ncc(-c2ccc3c(=O)[nH]nc(CN)c3c2)c1-c1ccc2ccccc2c1` [Example 4-139, 4-(aminomethyl)-6-(1-methyl-5-(naphthalen-2-yl)-1H-pyrazol-4-yl)phthalazin-1(2H)-one], the IC50 was found to be 1230 nM in test [1] (setting [6]); 5.07 µM in test [2] (Homo sapiens, HCT-116, 240 h); 1490 nM in test [3] (Homo sapiens, HCT-116, 240 h); 5.53 µM in test [4] (Homo sapiens, HCT-116, 96 h); 254 nM in test [5] (Homo sapiens, HCT-116, 96 h).
The like results for `COc1cc(C#N)c(-c2c(-c3ccc4c(=O)[nH]nc(CN)c4c3)cnn2C)cc1OC` [Example 4-129, 2-(4-(4-(aminomethyl)-1-oxo-1,2-dihydrophthalazin-6-yl)-1-methyl-1H-pyrazol-5-yl)-4,5-dimethoxybenzonitrile] were, in that order, 1650 nM, above 10 µM, 1350 nM, above 10 µM and 380 nM.
The corresponding values for `Cn1ncc(-c2ccc3c(=O)[nH]nc(CN)c3c2)c1-c1ccc2c(c1C#N)CCCO2` [Example 4-196, 6-(4-(4-(aminomethyl)-1-oxo-1,2-dihydrophthalazin-6-yl)-1-methyl-1H-pyrazol-5-yl)chromane-5-carbonitrile] are 653 nM, 9.29 µM, 154 nM, 1.32 µM and 11 nM.
The like results for `Cn1ncc(-c2ccc3c(=O)[nH]nc(CN)c3c2)c1-c1ccc2ccccc2n1` [Example 4-182, 4-(aminomethyl)-6-(1-methyl-5-(quinolin-2-yl)-1H-pyrazol-4-yl)phthalazin-1(2H)-one] were, in that order, 1420 nM, 7.25 µM, 572 nM, above 1 µM and 58 nM.
For the compound `Cn1ncc(-c2ccc3c(=O)[nH]nc(CN)c3c2)c1-c1ccc2ccccc2c1C#N` [Example 4-147, 2-(4-(4-(aminomethyl)-1-oxo-1,2-dihydrophthalazin-6-yl)-1-methyl-1H-pyrazol-5-yl)-1-naphthonitrile], the IC50 in test [1] (setting [6]) came out at 43 nM; in test [1] (in the absence of MTA, read-out: IC50) it was 280 nM; in test [2] (Homo sapiens, HCT-116, 240 h), 1.91 µM; in test [3] (Homo sapiens, HCT-116, 240 h), 50 nM; in test [4] (Homo sapiens, HCT-116, 96 h), 1.26 µM; in test [5] (Homo sapiens, HCT-116, 96 h), 11 nM.
As to `[2H]C([2H])(N)c1n[nH]c(=O)c2ccc(-c3cnn(C)c3-c3ccc4ccccc4c3C#N)cc12` [Example 11-2, 2-(4-(4-(aminomethyl-d2)-1-oxo-1,2-dihydrophthalazin-6-yl)-1-methyl-1H-pyrazol-5-yl)-1-naphthonitrile], the IC50 in test [1] (setting [6]) was 138 nM; in test [2] (Homo sapiens, HCT-116, 240 h), 1.95 µM; in test [3] (Homo sapiens, HCT-116, 240 h), 94 nM; in test [4] (Homo sapiens, HCT-116, 96 h) it was above 10 µM; in test [5] (Homo sapiens, HCT-116, 96 h) it was 1 nM.
The corresponding values for `Cn1ncc(-c2ccc3c(=O)[nH]nc(CN)c3c2)c1-c1cc(Cl)c(Cl)cc1C#N` [Example 4-164, 2-(4-(4-(aminomethyl)-1-oxo-1,2-dihydrophthalazin-6-yl)-1-methyl-1H-pyrazol-5-yl)-4,5-dichlorobenzonitrile] are 464 nM, above 10 µM, 583 nM, above 10 µM and 93.3 nM.
The like results for `[2H]C([2H])(N)c1n[nH]c(=O)c2ccc(-c3cnn(C)c3-c3cccc(Cl)c3C#N)cc12` [Example 11-1, 2-(4-(4-(aminomethyl-d2)-1-oxo-1,2-dihydrophthalazin-6-yl)-1-methyl-1H-pyrazol-5-yl)-6-chlorobenzonitrile] were, in that order, 1970 nM, above 10 µM, 807 nM, above 1 µM and 57 nM.
The like results for `Cc1ccc(-c2c(-c3ccc4c(=O)[nH]nc(CN)c4c3)cnn2C)c(C#N)c1Cl` [Example 4-151, 2-(4-(4-(aminomethyl)-1-oxo-1,2-dihydrophthalazin-6-yl)-1-methyl-1H-pyrazol-5-yl)-6-chloro-5-methylbenzonitrile] were, in that order, 606 nM, above 10 µM, 504 nM, 5.81 µM and 51 nM.
Turning to `N#Cc1ccccc1-c1c[nH]c2ncc(-c3ccc4c(=O)[nH]nc(CN)c4c3)cc12` [Example 4-163, 2-(5-(4-(aminomethyl)-1-oxo-1,2-dihydrophthalazin-6-yl)-1H-pyrrolo[2,3-b]pyridin-3-yl)benzonitrile], the IC50 was 3820 nM in test [1] (setting [6]); above 10 µM in test [2] (Homo sapiens, HCT-116, 240 h); above 10000 nM in test [3] (Homo sapiens, HCT-116, 240 h); above 3.33 µM in test [4] (Homo sapiens, HCT-116, 96 h); above 3330 nM in test [5] (Homo sapiens, HCT-116, 96 h).
